The text below walks through data of PMC12532338, “Characterization of a sesquiterpene synthase and a short-chain dehydrogenase in zerumbone biosynthesis and the applications in engineered Saccharomyces cerevisiae” (Frontiers in Plant Science, 2025).

The assay addresses T1, CwTPS8 (Curcuma wenyujin, UniProt A0A8E5B8H5).
T1 construct: complete ORF in pMAL-His (pMAL-c2x with His(8)-tag), E. coli BL21(DE3), Ni-NTA purified; tag removal not described
Description: GC-MS of hexane-extracted products. The class given is biochemical. As to conditions: formation of main product β-caryophyllene; 50 mM HEPES pH 7.5, 10 mM MgCl2, 5 mM DTT, 5% glycerol; 30°C, 10 min; 10-150 µM FPP; read-out: K m of β-caryophyllene.

T1 sequence (A0A8E5B8H5 entry or part of it): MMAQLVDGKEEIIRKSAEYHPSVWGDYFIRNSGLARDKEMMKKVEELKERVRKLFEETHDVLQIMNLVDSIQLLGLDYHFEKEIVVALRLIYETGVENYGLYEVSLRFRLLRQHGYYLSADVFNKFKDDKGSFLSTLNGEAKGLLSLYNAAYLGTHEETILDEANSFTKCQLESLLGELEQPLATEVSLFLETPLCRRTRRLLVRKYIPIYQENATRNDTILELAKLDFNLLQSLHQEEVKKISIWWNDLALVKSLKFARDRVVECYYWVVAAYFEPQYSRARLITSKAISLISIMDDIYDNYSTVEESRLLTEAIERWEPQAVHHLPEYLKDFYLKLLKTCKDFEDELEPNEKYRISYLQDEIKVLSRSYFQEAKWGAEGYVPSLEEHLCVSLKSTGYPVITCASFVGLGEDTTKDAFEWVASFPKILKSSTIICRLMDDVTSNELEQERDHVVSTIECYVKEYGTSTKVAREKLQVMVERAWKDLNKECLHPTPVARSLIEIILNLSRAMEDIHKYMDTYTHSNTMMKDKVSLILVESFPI

Turning to `CC(C)=CCC/C(C)=C/CC/C(C)=C/CO[P@@](=O)(O)OP(=O)(O)O` [FPP], the Km is 28 µM.
